≈ marks a conversion by molar mass, not a printed value.
What was measured:
CCRF-CEM = test: Cytotoxicity against human CCRF-CEM cells; format: functional, cell-based
HL-60(TB) = test: Cytotoxicity against human HL-60(TB) cells; format: functional, cell-based
MOLT-4 = test: Cytotoxicity against human MOLT4 cells; format: functional, cell-based
RPMI-8226 = test: Cytotoxicity against human RPMI8226 cells; format: functional, cell-based
SR = test: Cytotoxicity against human SR cells; format: functional, cell-based
A549 = test: Cytotoxicity against human A549 cells; format: functional
HOP-18 = test: Cytotoxicity against human HOP18 cells; format: functional
HOP-62 = test: Cytotoxicity against human HOP62 cells; format: functional
HOP-92 = test: Cytotoxicity against human HOP92 cells; format: functional
NCI-H226 = test: Cytotoxicity against human NCI-H226 cells; format: functional
NCI-H322M = test: Cytotoxicity against human NCI-H322M cells; format: functional
NCI-H460 = test: Cytotoxicity against human NCI-H460 cells; format: functional
NCI-H522 = test: Cytotoxicity against human NCI-H522 cells; format: functional
[1] = Cytotoxicity against human LXFL 529L cells; format: functional
DMS-114 = test: Cytotoxicity against human DMS114 cells; format: functional
DMS-273 = test: Cytotoxicity against human DMS273 cells; format: functional
COLO 205 = test: Cytotoxicity against human COLO205 cells; format: functional
DLD-1 = test: Cytotoxicity against human DLD1 cells; format: functional
HCC 2998 = test: Cytotoxicity against human HCC2998 cells; format: functional
HCT-116 = test: Cytotoxicity against human HCT116 cells; format: functional
HCT-15 = test: Cytotoxicity against human HCT15 cells; format: functional
HT-29 = test: Cytotoxicity against human HT-29 cells; format: functional
KM12 = test: Cytotoxicity against human KM12 cells; format: functional
KM-20L2 = test: Cytotoxicity against human KM20L2 cells; format: functional
SW-620 = test: Cytotoxicity against human SW620 cells; format: functional
SF-268 = test: Cytotoxicity against human SF268 cells; format: functional
SF-295 = test: Cytotoxicity against human SF295 cells; format: functional
SNB-19 = test: Cytotoxicity against human SNB19 cells; format: functional
SNB-75 = test: Cytotoxicity against human SNB75 cells; format: functional
U-251 = test: Cytotoxicity against human U251 cells; format: functional
XF498 = test: Cytotoxicity against human XF498 cells; format: functional
LOX IMVI = test: Cytotoxicity against human LOXIMVI cells; format: functional
Malme-3M = test: Cytotoxicity against human MALME-3M cells; format: functional
M14 = test: Cytotoxicity against human M14 cells; format: functional
SK-MEL-2 = test: Cytotoxicity against human SK-MEL-2 cells; format: functional
SK-MEL-28 = test: Cytotoxicity against human SK-MEL-28 cells; format: functional
SK-MEL-5 = test: Cytotoxicity against human SK-MEL-5 cells; format: functional
UACC-257 = test: Cytotoxicity against human UACC257 cells; format: functional
OVCAR-4 = test: Cytotoxicity against human OVCAR4 cells; format: functional
OVCAR-5 = test: Cytotoxicity against human OVCAR5 cells; format: functional
SK-OV-3 = test: Cytotoxicity against human SKOV3 cells; format: functional
[2] = Cytotoxicity against human 786-O cells; format: functional
A498 = test: Cytotoxicity against human A498 cells; format: functional
ACHN = test: Cytotoxicity against human ACHN cells; format: functional
CAKI-1 = test: Cytotoxicity against human Caki1 cells; format: functional
RXF 393 = test: Cytotoxicity against human RXF393 cells; format: functional
[3] = Cytotoxicity against human RXF631 cells; format: functional
SN12C = test: Cytotoxicity against human SN12C cells; format: functional
TK-10 = test: Cytotoxicity against human TK10 cells; format: functional
SNB-78 = test: Cytotoxicity against human SNB78 cells; format: functional
[4] = target: Tyrosine-protein kinase Lck (Homo sapiens, UniProt P06239)
Chain of Tyrosine-protein kinase Lck (P06239 whole entry): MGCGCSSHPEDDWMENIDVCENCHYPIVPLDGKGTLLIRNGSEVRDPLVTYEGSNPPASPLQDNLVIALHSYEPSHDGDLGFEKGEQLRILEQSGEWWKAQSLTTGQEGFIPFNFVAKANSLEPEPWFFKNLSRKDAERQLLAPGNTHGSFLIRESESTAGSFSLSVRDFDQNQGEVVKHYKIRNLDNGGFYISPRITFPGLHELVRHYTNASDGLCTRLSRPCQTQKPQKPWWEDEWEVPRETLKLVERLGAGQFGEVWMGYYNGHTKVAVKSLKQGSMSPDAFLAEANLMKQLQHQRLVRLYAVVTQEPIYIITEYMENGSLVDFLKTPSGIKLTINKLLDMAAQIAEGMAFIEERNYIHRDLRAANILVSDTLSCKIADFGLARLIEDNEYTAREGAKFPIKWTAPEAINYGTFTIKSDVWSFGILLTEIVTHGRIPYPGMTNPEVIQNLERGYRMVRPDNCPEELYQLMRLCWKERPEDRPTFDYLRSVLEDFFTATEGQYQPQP

NCI-H23 = test: cells; settings: Homo sapiens
Description: Cytotoxicity against human NCI-H23 cells

[5] = Cytotoxicity against Rous sarcoma virus-infected rat kidney cells; format: functional
L1210 [6] = test: Cytotoxicity against mouse L1210 cells; format: functional
L1210 [7] = test: Iv vivo cytotoxicity against mouse L1210 cells relative to control in presence of foroxymithine; format: functional
A-431 = test: Cytotoxicity against human A431 cells; format: functional
[8] = target: Epidermal growth factor receptor (Homo sapiens, UniProt P00533)
Chain of Epidermal growth factor receptor (P00533 whole entry): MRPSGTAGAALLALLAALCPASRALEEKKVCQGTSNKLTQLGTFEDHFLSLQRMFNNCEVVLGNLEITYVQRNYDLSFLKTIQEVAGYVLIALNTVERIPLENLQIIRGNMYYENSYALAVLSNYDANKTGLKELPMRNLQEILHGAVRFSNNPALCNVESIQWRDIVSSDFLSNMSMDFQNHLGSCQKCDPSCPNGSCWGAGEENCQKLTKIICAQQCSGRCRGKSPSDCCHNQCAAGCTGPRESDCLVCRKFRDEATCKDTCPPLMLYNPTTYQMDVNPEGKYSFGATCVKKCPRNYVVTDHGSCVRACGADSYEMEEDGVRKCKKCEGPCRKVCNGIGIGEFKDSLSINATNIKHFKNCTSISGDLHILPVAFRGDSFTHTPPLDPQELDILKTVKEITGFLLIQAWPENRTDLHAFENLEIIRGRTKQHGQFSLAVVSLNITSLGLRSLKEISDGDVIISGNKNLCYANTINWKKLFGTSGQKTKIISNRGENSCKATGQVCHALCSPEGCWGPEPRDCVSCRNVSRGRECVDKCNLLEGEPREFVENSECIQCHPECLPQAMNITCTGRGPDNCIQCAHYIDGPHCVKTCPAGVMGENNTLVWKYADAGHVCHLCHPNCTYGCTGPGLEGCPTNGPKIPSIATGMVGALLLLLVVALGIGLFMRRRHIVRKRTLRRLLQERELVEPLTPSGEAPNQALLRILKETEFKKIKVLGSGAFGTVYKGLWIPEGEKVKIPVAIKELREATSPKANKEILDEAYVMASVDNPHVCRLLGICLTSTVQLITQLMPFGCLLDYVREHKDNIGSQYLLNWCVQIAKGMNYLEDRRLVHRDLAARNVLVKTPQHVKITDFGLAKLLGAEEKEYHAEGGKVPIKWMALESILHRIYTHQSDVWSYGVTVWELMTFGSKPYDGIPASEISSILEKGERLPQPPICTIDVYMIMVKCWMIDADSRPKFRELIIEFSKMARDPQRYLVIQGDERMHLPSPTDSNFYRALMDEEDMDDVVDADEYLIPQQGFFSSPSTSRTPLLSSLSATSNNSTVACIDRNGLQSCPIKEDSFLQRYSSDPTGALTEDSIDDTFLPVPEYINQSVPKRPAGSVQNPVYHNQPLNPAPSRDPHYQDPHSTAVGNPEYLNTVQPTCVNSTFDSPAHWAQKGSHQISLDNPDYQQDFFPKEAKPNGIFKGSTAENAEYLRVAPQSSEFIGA

K562 = test: Cytotoxicity against human K562 cells; format: functional, cell-based
[9] = target: Tyrosine-protein kinase transforming protein Fps (Fujinami sarcoma virus, UniProt P00530); test: Inhibition of Fujinami sarcoma virus pp130fps
Chain of Tyrosine-protein kinase transforming protein Fps (P00530 whole entry): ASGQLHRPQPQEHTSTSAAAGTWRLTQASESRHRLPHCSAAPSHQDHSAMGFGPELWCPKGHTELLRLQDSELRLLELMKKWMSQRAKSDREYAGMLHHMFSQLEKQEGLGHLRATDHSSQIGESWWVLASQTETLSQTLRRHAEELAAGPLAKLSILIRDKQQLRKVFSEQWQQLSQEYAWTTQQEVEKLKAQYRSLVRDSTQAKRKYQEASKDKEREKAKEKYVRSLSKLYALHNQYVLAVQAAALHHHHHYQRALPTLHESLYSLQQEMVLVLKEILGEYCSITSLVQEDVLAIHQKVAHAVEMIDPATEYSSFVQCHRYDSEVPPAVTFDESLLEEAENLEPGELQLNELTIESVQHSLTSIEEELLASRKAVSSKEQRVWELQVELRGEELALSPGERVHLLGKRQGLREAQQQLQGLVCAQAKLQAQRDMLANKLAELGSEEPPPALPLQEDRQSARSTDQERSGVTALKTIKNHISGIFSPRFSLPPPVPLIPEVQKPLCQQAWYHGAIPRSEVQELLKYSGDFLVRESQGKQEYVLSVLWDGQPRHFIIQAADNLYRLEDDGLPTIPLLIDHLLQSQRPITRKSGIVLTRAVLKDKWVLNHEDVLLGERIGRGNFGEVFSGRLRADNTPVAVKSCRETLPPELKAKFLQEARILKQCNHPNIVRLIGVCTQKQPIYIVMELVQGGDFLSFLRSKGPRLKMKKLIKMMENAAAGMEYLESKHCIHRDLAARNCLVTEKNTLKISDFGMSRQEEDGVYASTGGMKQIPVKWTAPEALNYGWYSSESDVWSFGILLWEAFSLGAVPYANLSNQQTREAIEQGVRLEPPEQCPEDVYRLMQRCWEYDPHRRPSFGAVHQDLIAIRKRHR

Insulin receptor = Insulin receptor (Homo sapiens, UniProt P06213); test: Inhibition of insulin receptor
Chain of Insulin receptor (P06213 28-758 limits assumed): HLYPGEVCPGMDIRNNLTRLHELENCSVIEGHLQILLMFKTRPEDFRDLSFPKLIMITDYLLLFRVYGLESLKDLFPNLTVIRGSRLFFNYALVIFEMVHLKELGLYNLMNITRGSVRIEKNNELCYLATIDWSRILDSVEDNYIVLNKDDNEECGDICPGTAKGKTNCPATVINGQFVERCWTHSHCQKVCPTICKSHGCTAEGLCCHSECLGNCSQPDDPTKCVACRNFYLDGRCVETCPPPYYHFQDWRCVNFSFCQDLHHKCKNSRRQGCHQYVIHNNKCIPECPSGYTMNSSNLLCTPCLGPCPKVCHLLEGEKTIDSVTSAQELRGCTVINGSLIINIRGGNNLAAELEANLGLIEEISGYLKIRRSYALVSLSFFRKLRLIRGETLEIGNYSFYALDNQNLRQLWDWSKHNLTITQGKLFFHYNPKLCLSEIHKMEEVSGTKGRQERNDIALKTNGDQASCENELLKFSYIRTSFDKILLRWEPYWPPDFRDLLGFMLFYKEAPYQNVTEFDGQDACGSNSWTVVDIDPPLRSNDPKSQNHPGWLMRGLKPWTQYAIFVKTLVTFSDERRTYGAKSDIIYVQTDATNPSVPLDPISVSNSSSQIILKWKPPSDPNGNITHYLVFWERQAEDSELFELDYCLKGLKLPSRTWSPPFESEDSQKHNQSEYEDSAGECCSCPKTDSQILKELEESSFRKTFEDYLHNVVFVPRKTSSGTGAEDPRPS
Chain of Insulin receptor (P06213 763-1382 limits assumed): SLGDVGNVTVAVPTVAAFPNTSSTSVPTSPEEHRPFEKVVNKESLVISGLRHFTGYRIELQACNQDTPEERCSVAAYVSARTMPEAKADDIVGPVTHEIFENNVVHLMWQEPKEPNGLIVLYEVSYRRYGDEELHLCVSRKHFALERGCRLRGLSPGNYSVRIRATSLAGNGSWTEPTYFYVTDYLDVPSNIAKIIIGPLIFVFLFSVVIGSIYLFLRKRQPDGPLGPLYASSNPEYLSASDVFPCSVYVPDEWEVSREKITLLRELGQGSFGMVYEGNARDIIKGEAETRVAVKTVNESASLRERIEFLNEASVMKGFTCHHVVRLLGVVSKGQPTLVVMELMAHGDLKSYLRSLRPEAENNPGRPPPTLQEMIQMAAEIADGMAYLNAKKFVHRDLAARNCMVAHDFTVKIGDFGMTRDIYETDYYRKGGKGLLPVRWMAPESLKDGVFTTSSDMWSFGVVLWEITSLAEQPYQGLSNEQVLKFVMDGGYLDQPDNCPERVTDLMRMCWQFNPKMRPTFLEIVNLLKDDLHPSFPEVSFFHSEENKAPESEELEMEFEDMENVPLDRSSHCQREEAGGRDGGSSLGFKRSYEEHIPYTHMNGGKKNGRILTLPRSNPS

NRK = test: Growth inhibition of Rous sarcoma virus-transformed rat NRK cells; format: cell-based
[10] = target: Proto-oncogene tyrosine-protein kinase Src (Homo sapiens, UniProt P12931); test: Inhibition of p60 src
Chain of Proto-oncogene tyrosine-protein kinase Src (P12931 2-536 limits assumed): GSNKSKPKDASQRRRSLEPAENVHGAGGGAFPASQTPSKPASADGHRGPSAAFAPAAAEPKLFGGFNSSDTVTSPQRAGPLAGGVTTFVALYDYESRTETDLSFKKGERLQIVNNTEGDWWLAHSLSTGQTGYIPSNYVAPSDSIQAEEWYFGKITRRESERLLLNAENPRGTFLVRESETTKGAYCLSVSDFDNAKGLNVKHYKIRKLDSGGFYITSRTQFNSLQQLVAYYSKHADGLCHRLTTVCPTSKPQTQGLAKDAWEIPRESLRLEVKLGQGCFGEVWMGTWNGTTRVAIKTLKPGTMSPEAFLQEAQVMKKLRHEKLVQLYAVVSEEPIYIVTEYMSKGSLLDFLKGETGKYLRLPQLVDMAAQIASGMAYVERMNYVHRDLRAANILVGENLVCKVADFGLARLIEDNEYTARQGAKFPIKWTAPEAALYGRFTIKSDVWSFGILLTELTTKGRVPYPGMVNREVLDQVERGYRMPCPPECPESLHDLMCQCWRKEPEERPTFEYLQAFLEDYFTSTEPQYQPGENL

[11] = read-out: Log10GI50 (converted)
[12] = read-out: Log10LC50 (converted)

Cc1cc(O)c2c(c1)C(=O)c1cc(O)cc(O)c1C2=O [EMODIN]
GI50 (CCRF-CEM; [11]): 38 µM
CC50 (CCRF-CEM; [12]): > 100 µM
GI50 (HL-60(TB); [11]): 26.9 µM
CC50 (HL-60(TB); [12]): > 100 µM
GI50 (MOLT-4; [11]): 32.4 µM
CC50 (MOLT-4; [12]): > 100 µM
GI50 (RPMI-8226; [11]): 24.5 µM
CC50 (RPMI-8226; [12]): > 100 µM
GI50 (SR; [11]): 23.4 µM
CC50 (SR; [12]): > 100 µM
GI50 (A549; [11]): 26.9 µM
CC50 (A549; [12]): > 100 µM
GI50 (HOP-18; [11]): 3.98 µM
CC50 (HOP-18; [12]): > 100 µM
GI50 (HOP-62; [11]): 8.13 µM
CC50 (HOP-62; [12]): > 100 µM
GI50 (HOP-92; [11]): 11.5 µM
CC50 (HOP-92; [12]): > 100 µM
GI50 (NCI-H226; [11]): 33.1 µM
CC50 (NCI-H226; [12]): > 100 µM
GI50 (NCI-H322M; [11]): 35.5 µM
CC50 (NCI-H322M; [12]): > 100 µM
GI50 (NCI-H460; [11]): 20 µM
CC50 (NCI-H460; [12]): > 100 µM
GI50 (NCI-H522; [11]): 14.5 µM
CC50 (NCI-H522; [12]): > 100 µM
GI50 [1, 11]: 24.5 µM
CC50 [1, 12]: > 100 µM
GI50 (DMS-114; [11]): 40.7 µM
CC50 (DMS-114; [12]): > 100 µM
GI50 (DMS-273; [11]): 20 µM
CC50 (DMS-273; [12]): > 100 µM
GI50 (COLO 205; [11]): 17.8 µM
CC50 (COLO 205; [12]): 100 µM
GI50 (DLD-1; [11]): 23.4 µM
CC50 (DLD-1; [12]): > 100 µM
GI50 (HCC 2998; [11]): 32.4 µM
CC50 (HCC 2998; [12]): > 100 µM
GI50 (HCT-116; [11]): 36.3 µM
CC50 (HCT-116; [12]): > 100 µM
GI50 (HCT-15; [11]): 26.9 µM
CC50 (HCT-15; [12]): > 100 µM
GI50 (HT-29; [11]): 31.6 µM
CC50 (HT-29; [12]): > 100 µM
GI50 (KM12; [11]): 26.3 µM
CC50 (KM12; [12]): > 100 µM
GI50 (KM-20L2; [11]): 40.7 µM
CC50 (KM-20L2; [12]): > 100 µM
GI50 (SW-620; [11]): 23.4 µM
CC50 (SW-620; [12]): > 100 µM
GI50 (SF-268; [11]): 25.7 µM
CC50 (SF-268; [12]): > 100 µM
GI50 (SF-295; [11]): 28.2 µM
CC50 (SF-295; [12]): > 100 µM
GI50 (SNB-19; [11]): 30.2 µM
CC50 (SNB-19; [12]): > 100 µM
GI50 (SNB-75; [11]): 25.7 µM
CC50 (SNB-75; [12]): > 100 µM
GI50 (U-251; [11]): 27.5 µM
CC50 (U-251; [12]): > 100 µM
GI50 (XF498; [11]): 26.3 µM
CC50 (XF498; [12]): > 100 µM
GI50 (LOX IMVI; [11]): 17 µM
CC50 (LOX IMVI; [12]): > 100 µM
GI50 (Malme-3M; [11]): 11.7 µM
CC50 (Malme-3M; [12]): > 100 µM
GI50 (M14; [11]): 25.1 µM
CC50 (M14; [12]): > 100 µM
GI50 (SK-MEL-2; [11]): 20.4 µM
CC50 (SK-MEL-2; [12]): > 100 µM
GI50 (SK-MEL-28; [11]): 36.3 µM
CC50 (SK-MEL-28; [12]): > 100 µM
GI50 (SK-MEL-5; [11]): 2630 nM
CC50 (SK-MEL-5; [12]): 51.3 µM
GI50 (UACC-257; [11]): 28.2 µM
CC50 (UACC-257; [12]): > 100 µM
GI50 (OVCAR-4; [11]): 30.2 µM
CC50 (OVCAR-4; [12]): > 100 µM
GI50 (OVCAR-5; [11]): 38 µM
CC50 (OVCAR-5; [12]): > 100 µM
GI50 (SK-OV-3; [11]): 23.4 µM
CC50 (SK-OV-3; [12]): > 100 µM
GI50 ([2]; 786-0, read-out: Log10GI50 (converted)): 17.4 µM
CC50 ([2]; 786-0, read-out: Log10LC50 (converted)): > 100 µM
GI50 (A498; [11]): 16.6 µM
CC50 (A498; [12]): > 100 µM
GI50 (ACHN; [11]): 19.1 µM
CC50 (ACHN; [12]): > 100 µM
GI50 (CAKI-1; [11]): 45.7 µM
CC50 (CAKI-1; [12]): > 100 µM
GI50 (RXF 393; [11]): 38.9 µM
CC50 (RXF 393; [12]): > 100 µM
GI50 ([3]; RXF 631, read-out: Log10GI50 (converted)): 22.4 µM
CC50 ([3]; RXF 631, read-out: Log10LC50 (converted)): > 100 µM
GI50 (SN12C; [11]): 67.6 µM
CC50 (SN12C; [12]): > 100 µM
GI50 (TK-10; [11]): 23.4 µM
CC50 (TK-10; [12]): 97.7 µM
GI50 (SNB-78; [11]): 49 µM
CC50 (SNB-78; [12]): 100 µM
IC50 [4]: 18.5 µM
GI50 (NCI-H23; NCI-H23, read-out: Log10GI50 (converted)): 14.5 µM
CC50 (NCI-H23; NCI-H23, read-out: Log10LC50 (converted)): > 100 µM

O=CN/C=C/c1cc(O)ccc1O [ERBSTATIN]
GI50 [5]: 3 µg/mL (≈ 16.7 µM)
GI50 (L1210 [6]): 3 µg/mL (≈ 16.7 µM)
T/C (L1210 [7]): 155%
GI50 (A-431): 3 µg/mL (≈ 16.7 µM)
IC50 [8]: 3.07 µM

CO[C@H]1[C@@H](OC)C[C@H](C)[C@@H](OC)C2=CC(=O)C=C(NC(=O)/C(C)=C/C=C/[C@H](OC)[C@@H](OC(N)=O)/C(C)=C/[C@@H]1C)C2=O [HERBIMYCIN]
IC50 (CCRF-CEM): > 1000 nM
IC50 (HL-60(TB)): > 1000 nM
IC50 (K562): 95 nM
IC50 (MOLT-4): > 1000 nM
IC50 (RPMI-8226): > 1000 nM
IC50 (SR): > 1000 nM

O=c1c(O)c(-c2cc(O)c(O)c(O)c2)oc2cc(O)cc(O)c12 [MYRICETIN]
Ki [9]: 1800 nM
Ki (Insulin receptor): 2600 nM

O=c1c(-c2ccc(O)c(O)c2)coc2cc(O)cc(O)c12 [OROBOL]
IC50 (NRK): 4 µg/mL (≈ 14 µM)

CC(C)[C@H](NC(=O)[C@H](CCCN=C(N)N)NC(=O)[C@@H](N)CC(=O)O)C(=O)N[C@@H](Cc1ccc(O)cc1)C(=O)N[C@H](C(=O)N[C@@H](Cc1cnc[nH]1)C(=O)N1CCC[C@H]1C(=O)N[C@@H](Cc1ccccc1)C(=O)O)C(C)C [[Val5] - ANGIOTENSIN II]
Ki [10]: 700 µM

From ChEMBL document CHEMBL1150213, “Protein-tyrosine kinase inhibition: mechanism-based discovery of antitumor agents” (J Nat Prod, 1992)
